Assay results: PMC3387330 (Amino acids, 2012)

Assay: Metabolic stability of parent peptide in rat hepatocytes
Conditions: male, Sprague-Dawley

Row | SMILES | half-life at 10 µM [min]
1 | CSCC[C@H](NC(=O)[C@H](CC(C)C)NC(=O)[C@H](Cc1c[nH]cn1)NC(=O)CNC(=O)[C@@H](NC(=O)[C@H](C)NC(=O)[C@H](Cc1c[nH]c2ccccc12)NC(=O)[C@H](CCC(N)=O)NC(=O)CCCCCNC(=O)c1ccc(F)cc1)C(C)C)C(N)=O [FB-BBN, FB-aca-QWAVGHLM-NH2] | ~3.8
2 | CSCC[C@H](NC(=O)[C@H](CC(C)C)NC(=O)[C@H](Cc1c[nH]cn1)NC(=O)CNC(=O)[C@@H](NC(=O)[C@H](C)NC(=O)[C@H](Cc1c[nH]c2ccccc12)NC(=O)[C@H](CCC(N)=O)NC(=O)CCCCCNC(=O)C(C)F)C(C)C)C(N)=O (some centres unmarked) [FP-BBN, FP-aca-QWAVGHLM-NH2] | ~25
